From the supplement of paper PMC4862054

Tests used:
Conditions in all cases: incubation time: 72 h
BT-474 [1] = experiment: drug sensitivity score (DSS), CellTox Green (DSS (AUC-based score)); higher = stronger drug effect (viability inhibition or cytotoxicity); extreme values may be limits of the assay
Procedure, shortened: (§1)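 Breast cancer cell lines, seeded as 20 µl suspension, were incubated 72 h with compound in 384-well plates at 5 concentrations in 10-fold steps over a 10,000-fold range set for each compound. Fluorescence from CellTox Green was read at 485/520 nm before CellTiter-Glo luminescence, which was read after 10 min at room temperature. Every plate was normalised to 0.1 % DMSO and a positive kill control, and the drug sensitivity score was taken from the area under the fitted dose-response curve.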

CAL-148 [2] = experiment: as above
Procedure, shortened: as §1

CAL-51 [3] = experiment: as above
Procedure, shortened: as §1

DU-4475 [4] = experiment: as above
Procedure, shortened: as §1

HCC1599 [5] = experiment: as above
Procedure, shortened: as §1

HCC1937 [6] = experiment: as above
Procedure, shortened: as §1

HDQ-P1 [7] = experiment: as above
Procedure, shortened: as §1

MDA-MB-231 [8] = experiment: as above
Procedure, shortened: as §1

MDA-MB-436 [9] = experiment: as above
Procedure, shortened: as §1

MDA-MB-453 [10] = experiment: as above
Procedure, shortened: as §1

MFM-223 [11] = experiment: as above
Procedure, shortened: as §1

BT-474 [12] = experiment: normalised viability (% of control), CellTiter-Blue; higher = more viable cells (about 100 = DMSO control)
Procedure, shortened: (§2)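 The reported figure is normalised viability at a single listed concentration of the series. Breast cancer cell lines (20 µl suspension) went onto 384-well plates holding compound in 5 µl medium for 72 h. CellTiter-Blue (2.5 µl, 2 h, 37 °C) was read by fluorescence at 560/590 nm, and each plate was scaled to vehicle at 100 and a positive kill control at 0.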

BT-549 = experiment: as above
Procedure, shortened: as §2

CAL-120 = experiment: as above
Procedure, shortened: as §2

CAL-148 [13] = experiment: as above
Procedure, shortened: as §2

CAL-51 [14] = experiment: as above
Procedure, shortened: as §2

CAL-85-1 = experiment: as above
Procedure, shortened: as §2

DU-4475 [15] = experiment: as above
Procedure, shortened: as §2

HCC1143 = experiment: as above
Procedure, shortened: as §2

HCC1599 [16] = experiment: as above
Procedure, shortened: as §2

HCC1937 [17] = experiment: as above
Procedure, shortened: as §2

HDQ-P1 [18] = experiment: as above
Procedure, shortened: as §2

Hs578T = experiment: as above
Procedure, shortened: as §2

MDA-MB-231 [19] = experiment: as above
Procedure, shortened: as §2

MDA-MB-436 [20] = experiment: as above
Procedure, shortened: as §2

MDA-MB-453 [21] = experiment: as above
Procedure, shortened: as §2

MDA-MB-468 = experiment: as above
Procedure, shortened: as §2

MFM-223 [22] = experiment: as above
Procedure, shortened: as §2

SK-BR-3 = experiment: as above
Procedure, shortened: as §2

| Compound | drug sensitivity score (BT-474 [1]) | drug sensitivity score (CAL-148 [2]) | drug sensitivity score (CAL-51 [3]) | drug sensitivity score (DU-4475 [4]) | drug sensitivity score (HCC1599 [5]) | drug sensitivity score (HCC1937 [6]) | drug sensitivity score (HDQ-P1 [7]) | drug sensitivity score (MDA-MB-231 [8]) | drug sensitivity score (MDA-MB-436 [9]) | drug sensitivity score (MDA-MB-453 [10]) | drug sensitivity score (MFM-223 [11]) | normalised viability (BT-474 [12]; 1000 nM) [%] | normalised viability (BT-549; 1000 nM) [%] | normalised viability (CAL-120; 1000 nM) [%] | normalised viability (CAL-148 [13]; 30 nM) [%] | normalised viability (CAL-51 [14]; 30 nM) [%] | normalised viability (CAL-85-1; 30 nM) [%] | normalised viability (DU-4475 [15]; 30 nM) [%] | normalised viability (HCC1143; 1000 nM) [%] | normalised viability (HCC1599 [16]; 1000 nM) [%] | also measured |
| --- | --- | --- | --- | --- | --- | --- | --- | --- | --- | --- | --- | --- | --- | --- | --- | --- | --- | --- | --- | --- | --- |
| Nc1ncnc2c1c(COc1cccc(Cl)c1)nn2C1CCOCC1 | 0 | 0 | 0 | 0 | 0 | 0 | 0 | 0 | 0 | 0 | 0 | – | – | – | – | – | – | – | – | – | – |
| COc1ccc(-c2ccc3c(N4CCOC[C@@H]4C)nc(N4CCOC[C@@H]4C)nc3n2)cc1CO [AZD8055] | 2.99 | 14.2 | 7.39 | 0 | 0 | 0 | 0 | 0 | 0 | 0 | 0 | 26.9 | 18.7 | 13.9 | 53 | 47.5 | 56.9 | 75.8 | 32.5 | 46.4 | normalised viability (HCC1937 [17]; 1000 nM): 32.6%; normalised viability (HDQ-P1 [18]; 30 nM): 53.1%; normalised viability (Hs578T; 1000 nM): 23.7%; normalised viability (MDA-MB-231 [19]; 1000 nM): 23.9%; normalised viability (MDA-MB-436 [20]; 1000 nM): 32.5%; normalised viability (MDA-MB-453 [21]; 30 nM): 33.6%; normalised viability (MDA-MB-468; 1000 nM): 29.1%; normalised viability (MFM-223 [22]; 1000 nM): 18%; normalised viability (SK-BR-3; 1000 nM): 13% |
| C[C@]12CC[C@H](O)CC1=CC[C@@H]1[C@@H]2CC[C@]2(C)C(c3cccnc3)=CC[C@@H]12 [Abiraterone] | 0 | 0 | 0 | 0 | 0 | 0 | 0 | 0 | 0 | 0 | 0 | – | – | – | – | – | – | – | – | – | normalised viability (BT-474 [12]; 500 nM): 116%; normalised viability (BT-549; 500 nM): 111%; normalised viability (CAL-120; 500 nM): 81.4%; normalised viability (CAL-148 [13]; 15 nM): 84.2%; normalised viability (CAL-51 [14]; 15 nM): 107%; normalised viability (CAL-85-1; 15 nM): 80.5%; normalised viability (DU-4475 [15]; 15 nM): 80.8%; normalised viability (HCC1143; 500 nM): 80.2%; normalised viability (HCC1599 [16]; 500 nM): 385%; normalised viability (HCC1937 [17]; 500 nM): 83%; normalised viability (HDQ-P1 [18]; 15 nM): 108%; normalised viability (Hs578T; 500 nM): 116%; normalised viability (MDA-MB-231 [19]; 500 nM): 106%; normalised viability (MDA-MB-436 [20]; 500 nM): 104%; normalised viability (MDA-MB-453 [21]; 15 nM): 110%; normalised viability (MDA-MB-468; 500 nM): 106%; normalised viability (MFM-223 [22]; 500 nM): 96.6%; normalised viability (SK-BR-3; 500 nM): 101% |
| CN(C)CCN1C(=O)c2cccc3cc(N)cc(c23)C1=O [Amonafide] | 0 | 2.89 | 2.42 | 0 | 0 | 0 | 0 | 0 | 11.2 | 0 | 0 | 108 | 102 | 78.7 | 85.8 | 102 | 79.8 | 83.2 | 86.3 | 101 | normalised viability (HCC1937 [17]; 1000 nM): 69.2%; normalised viability (HDQ-P1 [18]; 30 nM): 104%; normalised viability (Hs578T; 1000 nM): 115%; normalised viability (MDA-MB-231 [19]; 1000 nM): 67.8%; normalised viability (MDA-MB-436 [20]; 1000 nM): 95.7%; normalised viability (MDA-MB-453 [21]; 30 nM): 85.7%; normalised viability (MDA-MB-468; 1000 nM): 106%; normalised viability (MFM-223 [22]; 1000 nM): 99.3%; normalised viability (SK-BR-3; 1000 nM): 98.7% |
| CC(C)(C#N)c1cc(Cn2cncn2)cc(C(C)(C)C#N)c1 [Anastrozole] | 0 | 0 | 0 | 0 | 0 | 0 | 0 | 0 | 0 | 0.209 | 0 | 101 | 99.1 | 89.5 | 96.8 | 106 | 86.5 | 94.2 | 83.5 | 88.3 | normalised viability (HCC1937 [17]; 1000 nM): 95.4%; normalised viability (HDQ-P1 [18]; 30 nM): 89.2%; normalised viability (Hs578T; 1000 nM): 95.7%; normalised viability (MDA-MB-231 [19]; 1000 nM): 80.4%; normalised viability (MDA-MB-436 [20]; 1000 nM): 83.6%; normalised viability (MDA-MB-453 [21]; 30 nM): 91%; normalised viability (MDA-MB-468; 1000 nM): 101%; normalised viability (MFM-223 [22]; 1000 nM): 90.4%; normalised viability (SK-BR-3; 1000 nM): 98.7% |
| CC(C)c1c(C(=O)Nc2ccccc2)c(-c2ccccc2)c(-c2ccc(F)cc2)n1CC[C@@H](O)C[C@@H](O)CC(=O)O [Atorvastatin] | 0 | 0 | 13.9 | 0 | 0 | 0 | 0 | 13.1 | 0 | 0.0639 | 0 | – | – | – | – | – | – | – | – | – | – |
| O=C(O)CCCc1ccc(N(CCCl)CCCl)cc1 [Chlorambucil] | 0 | 0 | 0 | 0 | 0 | 0 | 0 | 0 | 2.34 | 0 | 0 | 112 | 102 | 98.5 | 104 | 112 | 92.7 | 92 | 93.9 | 97.1 | normalised viability (HCC1937 [17]; 1000 nM): 68.7%; normalised viability (HDQ-P1 [18]; 30 nM): 94.1%; normalised viability (Hs578T; 1000 nM): 102%; normalised viability (MDA-MB-231 [19]; 1000 nM): 109%; normalised viability (MDA-MB-436 [20]; 1000 nM): 91.8%; normalised viability (MDA-MB-453 [21]; 30 nM): 94.3%; normalised viability (MDA-MB-468; 1000 nM): 68.3%; normalised viability (MFM-223 [22]; 1000 nM): 106%; normalised viability (SK-BR-3; 1000 nM): 105% |
